Assays:
Assay type in all cases: in vivo
Cyperus difformis = test: Test Example 3: herbicidal effect by application to foliage (Wagner pot, water depth 0.1-0.5 cm); details: Nineteenth Table; application herbicide amount 320 g/ha
Outline: (§1)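 Rice-field weeds and directly sown rice were grown 14 days in flooded alluvial soil (water depth 0.1–0.5 cm) at 25–30 °C in a greenhouse. An emulsion formulation diluted to the stated g/ha rate was sprayed onto stems and leaves. Effects were scored on a 0–5 scale (herbicidal ratio bands) three weeks after treatment.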

[1] = system: Echinochloa crus-galli var. crus-galli; test: as above; details: Nineteenth Table; application herbicide amount 320 g/ha
Outline: as §1

Leptochloa chinensis = test: as above; details: Nineteenth Table; application herbicide amount 320 g/ha
Outline: as §1

[2] = system: directly sowed Oryza sativa; test: Test Example 4: effect on crop by application to foliage (diluvial soil, plastic box); details: application to foliage, application herbicide amount 320 g/ha
Outline: (§2)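 Scores run from 0 (herbicidal ratio ≤5%) to 5 (≥90%, almost fully withered) and were assessed three weeks after foliar spraying. Seedlings had been raised for 14 days at 25-30° C in sterilized diluvial soil before treatment, with the emulsion diluted in water to the stated g/ha dose.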

Glycine max = test: as above; details: application to foliage, application herbicide amount 320 g/ha
Outline: as §2

Brassica campestris L. = test: as above; details: application to foliage, application herbicide amount 320 g/ha
Outline: as §2

[3] = system: Beta vulgaris ssp. vulgaris; test: as above; details: application to foliage, application herbicide amount 320 g/ha
Outline: as §2

Triticum aestivum = test: as above; details: application to foliage, application herbicide amount 320 g/ha
Outline: as §2

Zea mays = test: as above; details: application to foliage, application herbicide amount 320 g/ha
Outline: as §2

[4] = system: directly sowed Oryza sativa; test: Test Example 3: effect on crop by application to foliage (Wagner pot, water depth 0.1-0.5 cm); details: Nineteenth Table; application herbicide amount 320 g/ha
Outline: as §1

Setaria viridis = test: Test Example 4: herbicidal effect by application to foliage (diluvial soil, plastic box); details: application to foliage, application herbicide amount 320 g/ha
Outline: as §2

Abutilon theophrasti = test: as above; details: application to foliage, application herbicide amount 320 g/ha
Outline: as §2

Stellaria media = test: as above; details: application to foliage, application herbicide amount 320 g/ha
Outline: as §2

Amaranthus retroflexus = test: as above; details: application to foliage, application herbicide amount 320 g/ha
Outline: as §2

Digitaria ciliaris = test: as above; details: application to foliage, application herbicide amount 320 g/ha
Outline: as §2

Avena fatua = test: as above; details: application to foliage, application herbicide amount 320 g/ha
Outline: as §2

Apera spica-venti. = test: as above; details: application to foliage, application herbicide amount 320 g/ha
Outline: as §2

Galium spurium = test: as above; details: application to foliage, application herbicide amount 320 g/ha
Outline: as §2

[5] = system: Echinochloa crus-galli var. crus-galli; test: as above; details: application to foliage, application herbicide amount 320 g/ha
Outline: as §2

Lolium multiflorum Lam. = test: as above; details: application to foliage, application herbicide amount 320 g/ha
Outline: as §2

Veronica persica = test: as above; details: application to foliage, application herbicide amount 320 g/ha
Outline: as §2

Alopecurus myosuroides = test: as above; details: application to foliage, application herbicide amount 320 g/ha
Outline: as §2

Chenopodium album = test: as above; details: application to foliage, application herbicide amount 320 g/ha
Outline: as §2

Compound | E (Cyperus difformis) herbicidal ratio grade (Cyperus difformis) | H (Echinochloa crus-galli var. crus-galli) herbicidal ratio grade [1] | D (Leptochloa chinensis) herbicidal ratio grade (Leptochloa chinensis) | d (directly sowed Oryza sativa) effect on crop [2] | c (Glycine max) effect on crop (Glycine max) | g (Brassica campestris L.) effect on crop (Brassica campestris L.) | f (Beta vulgaris ssp. vulgaris) effect on crop [3] | e (Triticum aestivum) effect on crop (Triticum aestivum) | b (Zea mays) effect on crop (Zea mays) | b (directly sowed Oryza sativa) effect on crop grade [4] | G (Setaria viridis) herbicidal effect (Setaria viridis) | M (Abutilon theophrasti) herbicidal effect (Abutilon theophrasti) | P (Stellaria media) herbicidal effect (Stellaria media) | N (Amaranthus retroflexus) herbicidal effect (Amaranthus retroflexus) | F (Digitaria ciliaris) herbicidal effect (Digitaria ciliaris) | I (Avena fatua) herbicidal effect (Avena fatua) | L (Apera spica-venti.) herbicidal effect (Apera spica-venti.) | Q (Galium spurium) herbicidal effect (Galium spurium) | H (Echinochloa crus-galli var. crus-galli) herbicidal effect [5] | K (Lolium multiflorum Lam.) herbicidal effect (Lolium multiflorum Lam.) | further results
Cc1nnc(NC(=O)c2ccc(C(F)(F)F)n3c(COc4ccccc4)nnc23)o1 [1-025] | 2 (Herbicidal ratio of 20% or more and less than 40%) | 4 (Herbicidal ratio of 70% or more and less than 90%) | 3 (Herbicidal ratio of 40% or more and less than 70%) | 3 (Herbicidal ratio of 40% or more and less than 70%) | 0 (Herbicidal ratio of 5% or less (almost no effect)) | 2 (Herbicidal ratio of 20% or more and less than 40%) | 5 (Herbicidal ratio of 90% or more (almost completely withered)) | 0 (Herbicidal ratio of 5% or less (almost no effect)) | 0 (Herbicidal ratio of 5% or less (almost no effect)) | 2 (Herbicidal ratio of 20% or more and less than 40%) | 2 (Herbicidal ratio of 20% or more and less than 40%) | 5 (Herbicidal ratio of 90% or more (almost completely withered)) | 4 (Herbicidal ratio of 70% or more and less than 90%) | 3 (Herbicidal ratio of 40% or more and less than 70%) | 3 (Herbicidal ratio of 40% or more and less than 70%) | 0 (Herbicidal ratio of 5% or less (almost no effect)) | 0 (Herbicidal ratio of 5% or less (almost no effect)) | 3 (Herbicidal ratio of 40% or more and less than 70%) | 4 (Herbicidal ratio of 70% or more and less than 90%) | 0 (Herbicidal ratio of 5% or less (almost no effect)) | R (Veronica persica) herbicidal effect (Veronica persica): 3 (Herbicidal ratio of 40% or more and less than 70%); J (Alopecurus myosuroides) herbicidal effect (Alopecurus myosuroides): 0 (Herbicidal ratio of 5% or less (almost no effect)); O (Chenopodium album) herbicidal effect (Chenopodium album): 5 (Herbicidal ratio of 90% or more (almost completely withered))
Cc1nnc(NC(=O)c2ccc(C(F)(F)F)n3c(CS(=O)(=O)CC(F)(F)F)nnc23)o1 [1-039] | 3 (Herbicidal ratio of 40% or more and less than 70%) | 3 (Herbicidal ratio of 40% or more and less than 70%) | 3 (Herbicidal ratio of 40% or more and less than 70%) | 0 (Herbicidal ratio of 5% or less (almost no effect)) | 0 (Herbicidal ratio of 5% or less (almost no effect)) | 0 (Herbicidal ratio of 5% or less (almost no effect)) | 2 (Herbicidal ratio of 20% or more and less than 40%) | 0 (Herbicidal ratio of 5% or less (almost no effect)) | 0 (Herbicidal ratio of 5% or less (almost no effect)) | 2 (Herbicidal ratio of 20% or more and less than 40%) | 0 (Herbicidal ratio of 5% or less (almost no effect)) | 0 (Herbicidal ratio of 5% or less (almost no effect)) | 0 (Herbicidal ratio of 5% or less (almost no effect)) | 1 (Herbicidal ratio of 5% or more and less than 20%) | 2 (Herbicidal ratio of 20% or more and less than 40%) | 0 (Herbicidal ratio of 5% or less (almost no effect)) | 0 (Herbicidal ratio of 5% or less (almost no effect)) | 0 (Herbicidal ratio of 5% or less (almost no effect)) | 4 (Herbicidal ratio of 70% or more and less than 90%) | 0 (Herbicidal ratio of 5% or less (almost no effect)) | R (Veronica persica) herbicidal effect (Veronica persica): 0 (Herbicidal ratio of 5% or less (almost no effect)); J (Alopecurus myosuroides) herbicidal effect (Alopecurus myosuroides): 0 (Herbicidal ratio of 5% or less (almost no effect)); O (Chenopodium album) herbicidal effect (Chenopodium album): 4 (Herbicidal ratio of 70% or more and less than 90%)
Cc1nnc(NC(=O)c2ccc(C(F)(F)F)n3c(-c4ccc(C(F)(F)F)cc4)nnc23)o1 [1-045] | 4 (Herbicidal ratio of 70% or more and less than 90%) | 1 (Herbicidal ratio of 5% or more and less than 20%) | 3 (Herbicidal ratio of 40% or more and less than 70%) | 1 (Herbicidal ratio of 5% or more and less than 20%) | 0 (Herbicidal ratio of 5% or less (almost no effect)) | 3 (Herbicidal ratio of 40% or more and less than 70%) | 3 (Herbicidal ratio of 40% or more and less than 70%) | 0 (Herbicidal ratio of 5% or less (almost no effect)) | 0 (Herbicidal ratio of 5% or less (almost no effect)) | 0 (Herbicidal ratio of 5% or less (almost no effect)) | 1 (Herbicidal ratio of 5% or more and less than 20%) | 4 (Herbicidal ratio of 70% or more and less than 90%) | 2 (Herbicidal ratio of 20% or more and less than 40%) | 4 (Herbicidal ratio of 70% or more and less than 90%) | 3 (Herbicidal ratio of 40% or more and less than 70%) | 0 (Herbicidal ratio of 5% or less (almost no effect)) | 0 (Herbicidal ratio of 5% or less (almost no effect)) | 2 (Herbicidal ratio of 20% or more and less than 40%) | 2 (Herbicidal ratio of 20% or more and less than 40%) | 0 (Herbicidal ratio of 5% or less (almost no effect)) | R (Veronica persica) herbicidal effect (Veronica persica): 3 (Herbicidal ratio of 40% or more and less than 70%); J (Alopecurus myosuroides) herbicidal effect (Alopecurus myosuroides): 0 (Herbicidal ratio of 5% or less (almost no effect)); O (Chenopodium album) herbicidal effect (Chenopodium album): 5 (Herbicidal ratio of 90% or more (almost completely withered))

Reference: patent US9708314B2, “Heterocyclic amide compound” (NISSAN CHEMICAL INDUSTRIES, LTD., priority 2013, dated 2017)
